For orientation: viability means a read-out of living cells in per cent, often relative to untreated cells.

The nature of one data set: in vitro. As to conditions: human, hela cells, % viability.
For `NC(=O)CN1CCC(C(=O)c2ccc(F)cc2)CC1` [CBK149130], the viability at 28.5 h, 10 µM came out at 96.6%.
Same read-out and setting: the result for `COCCCn1c(CCC(=O)O)ccc1-c1ccc(F)cc1` [CBK267886] reads 104%; that for `COC(=O)c1ccsc1NC(=O)CN1CCN(Cc2ccc3c(c2)OCO3)CC1` [CBK267940], 97.6%.
Take `CCOC(=O)CSc1nc(C)cc(Oc2ccc(=O)n(C)n2)n1` [CBK269476]: the viability at 28.5 h, 10 µM came to 101%.
The same measure, in the same setting: the result for `CCn1c(/C=C/C2=CCN(C)CC2)nc2ccccc21` [CBK283745] reads 91.8%; that for `OC1CCN(Cc2ccc(-c3ccc(F)cc3F)o2)CC1` [CBK283200], 98.9%; that for `Cc1noc2nc(C3CCCN(C(=O)C4CC4)C3)cc(C(F)F)c12` (stereo not shown) [CBK284608], 85.8%.
With `Cc1ccc(C(=O)N2CCC3(CC2)CC(=O)c2cc(Br)ccc2O3)cc1C` [CBK162264], the viability at 28.5 h, 10 µM came out at 105%.
Take `Cc1cccc(OCCN2C(=O)CC(Cc3cnn(C)c3)C2=O)c1` (stereo not shown) [CBK304081]: the viability at 28.5 h, 10 µM is 99.7%.
On to `CN(C)CCOC(=O)c1ccc2[nH]c3c(c2c1)CSCC3` [CBK009731C], for which the viability at 28.5 h, 10 µM came out at 95.8%.
For `COc1ccc2c(ccn2S(=O)(=O)c2ccc(N3CCNCC3)c(C(F)(F)F)c2)c1` [CBK034033C], the viability at 28.5 h, 10 µM was 89.3%.
On the same count and under the same terms, the result for `Cn1nc(-c2ccccc2)cc1[C@H]1CN2CC[C@H]1C[C@@H]2CNC(=O)N1CCOCC1` [CBK289094] reads 113%.
With `CCCCc1cc(=O)[nH]c(NCc2ccc(C(F)(F)F)cc2)n1` [CBK003946], the viability at 28.5 h, 10 µM worked out at 92.5%.
In the case of `Cc1cccc2c1OCC[C@@H]2Oc1cncc(N2CCNCC2)n1` [CBK172310G], the viability at 28.5 h, 10 µM turned out to be 101%.
As for `O=C(c1ccccc1Br)N1CCN(c2ccc([N+](=O)[O-])c(NCc3cccnc3)c2)CC1` [CBK265735], the viability at 28.5 h, 10 µM came out at 100%.
Still for that read-out and setting: the result for `COc1ccccc1CN(Cc1cccnc1)C(=O)CCn1cnnn1` [CBK307106] reads 90.4%.
In the case of `Cc1cccc(OCCNC(=O)CSc2n[nH]c(=O)n2C2CC2)c1` [CBK295599], the viability at 28.5 h, 10 µM was 94.2%.
The same measure, in the same setting: the result for `O=C(O)c1ccc(N2C(=O)CC(N3CCN(c4cccc(C(F)(F)F)c4)CC3)C2=O)cc1` (stereo not shown) [CBK287228] reads 93.3%.
For the compound `COc1cc(-c2nc3ncccc3cc2NS(C)(=O)=O)cc(OC)c1OC` [CBK085697], the viability at 28.5 h, 10 µM was determined as 92.7%.
The same measure, in the same setting: the result for `Cc1n[nH]c(NCc2cccc(Cl)c2Cl)n1` [CBK288037] reads 107%; that for `CCc1nnc(NS(=O)(=O)c2ccc(NCc3cc(Cl)cc(Cl)c3O)cc2)s1` [CBK126494], 112%; that for `O=C1CC(c2ccccc2)c2snc(C(=O)O)c2N1` (stereo not shown) [CBK287111], 90.5%.
The same measure, in the same setting: the result for `CC(C)[C@H](CO)Nc1cncc(-c2cccc(N(C)C)c2)n1` [CBK065547] reads 81.9%; that for `COc1ccc(/C=C(\C)C(=O)NCc2ccccc2OC2CCNC2)cc1OC` (stereo not shown) [CBK034157T], 90%; that for `O=c1nc(-c2ccco2)oc2ccccc12` [CBK152421], 112%.
Same read-out and setting: the result for `O=C(CN1CCC(c2ccccc2F)CC1)NCc1ccco1` [CBK283550] reads 88.3%.
With `CC(=O)c1ccc(-c2nccnc2NCc2cccnc2)s1` [CBK037050], the viability at 28.5 h, 10 µM came to 99.5%.
`OCCCNC(c1ccccc1)c1ccc(O)cc1` (stereo not shown) [CBK266329]: the viability at 28.5 h, 10 µM worked out at 97.2%.
The same measure, in the same setting: the figure for `COCCNc1nc(-c2ccc3c(c2)OCO3)ccc1C(=O)N(C)CCN(C)C` [CBK105915] is 103%.
Take `O=C(CN1C(=O)c2ccccc2C1=O)NCc1ccc(C(=O)O)cc1` [CBK262795]: the viability at 28.5 h, 10 µM is 90.2%.
On the same count and under the same terms, the figure for `COc1ccc(Cl)cc1N1CCN(Cc2ccc3ccccc3c2)CC1` [CBK126414] is 116%; for `Cc1ccc(NC(=O)c2cncc(-c3ccc(C(=O)N4CCOCC4)cc3)c2)c(O)c1` [CBK160208] it is 84.3%; for `Cn1c(=O)[nH]c(=O)c2c1nc(N1CCOCC1)n2CCCSc1nc2ccccc2s1` [CBK269368] it is 92.7%.
In the case of `CCOC(=O)c1cnc2nc3ccccc3n2c1C` [CBK270185], the viability at 28.5 h, 10 µM amounted to 95.4%.
In the case of `CCN(CC(=O)NCc1cccs1)C(=O)CN1CCCC1c1ccc(C)cc1` (stereo not shown) [CBK297761], the viability at 28.5 h, 10 µM is 104%.
`O=C(C1CCOCC1)N1CCCC[C@H]2CN(Cc3ccccc3)C[C@H]21` [CBK284839]: the viability at 28.5 h, 10 µM came out at 86.9%.
Regarding `O=C(Nc1ccc2ncccc2c1)c1ccc(Cl)cc1Cl` [CBK159793], the viability at 28.5 h, 10 µM is 96.5%.
As to `CC12CN3CCN(CC(C3)C1(O)CN1CCOCC1)C2` (stereo not shown) [CBK263033], the viability at 28.5 h, 10 µM turned out to be 103%.
On to `NC(=O)c1ccc(NC(=O)CCCc2nc(-c3ccccc3Cl)no2)cc1` [CBK268932], for which the viability at 28.5 h, 10 µM amounted to 103%.
For the compound `CCc1nnsc1C(=O)Nc1nn(C)c2cccc(N3CCOCC3)c12` [CBK307671], the viability at 28.5 h, 10 µM was found to be 84.4%.
For the compound `CC(C)(C)OC(=O)NCCCn1cc(C(=O)O)nn1` [CBK287028], the viability at 28.5 h, 10 µM came to 90.4%.
Same read-out and setting: the result for `O=C(O)c1cccc(-n2nnnc2SCc2ccccn2)c1` [CBK266744] reads 115%; that for `CCc1nnc(NS(=O)(=O)c2c(C)nn(C)c2Cl)s1` [CBK062180], 112%.
The same measure, in the same setting: the result for `CCOC(=O)c1c(NC(=O)CSc2nnc3ccccn23)sc2c1CCCCC2` [CBK265685] reads 101%.
For `Cc1nc(NS(=O)(=O)/C=C/c2ccccc2)sc1C(=O)O` [CBK045553], the viability at 28.5 h, 10 µM is 84.7%.
On the same count and under the same terms, the figure for `CC(C)n1cc(C(=O)N2CCCC2c2nc3ccccc3[nH]2)cn1` (stereo not shown) [CBK284667] is 108%; for `NC(=O)c1nc(-c2ccco2)nc2c1[nH]c(=O)n2-c1ccc(Cl)cc1` [CBK287545] it is 91.2%.
Still for that read-out and setting: the result for `COc1ccccc1-c1nccnc1NCc1ccccn1` [CBK036894] reads 108%; that for `CC(=O)Nc1cccc(-c2cnc(N)c(N3CCC(C(=O)O)CC3)n2)c1` [CBK063657], 98.9%.
As to `CCOC(=O)[C@H]1CC[C@]2(CC1)CNC(=O)c1cc(Cl)ccc1O2` [CBK284849], the viability at 28.5 h, 10 µM worked out at 89.9%.
As for `COCCc1noc(CC2CCN(c3nc(C#N)c(Cl)s3)CC2)n1` [CBK304205], the viability at 28.5 h, 10 µM came to 102%.
As to `O=C1CC(N2CCN(C3CC(=O)N(Cc4ccccc4)C3=O)CC2)C(=O)N1Cc1ccccc1` (stereo not shown) [CBK269198], the viability at 28.5 h, 10 µM amounted to 122%.
Still for that read-out and setting: the figure for `CC(C)CCN(Cc1ccc(-c2ccc(S(C)(=O)=O)cc2)nc1)C1CCN(C(=O)OC(C)(C)C)CC1` [CBK165138] is 83.4%; for `Cc1nc2c(OCc3ccccc3)cccn2c1N(C)C(=O)C1CCCCC1` [CBK147884] it is 96.2%; for `CCOc1cc(NC2CCN(C(=O)C3(CCOC)CC3)CC2)ncn1` [CBK304434] it is 98.2%.
Still for that read-out and setting: the figure for `Cc1ccc(C(=O)N(C)C2CCCCC2)cc1C` [CBK083667] is 137%; for `COCCCn1c(=O)[nH]c2ncc(-c3cc(C(C)C)ccc3OC)nc21` [CBK064351] it is 82.8%.
Still for that read-out and setting: the result for `N#Cc1ccccc1N1CCN(c2cncc(-c3ccc(CO)cc3)n2)CC1` [CBK037383] reads 86.9%; that for `CC(OC(=O)c1ccc2c(c1)C(=O)N(c1ccc(Cl)cc1)C2=O)C(=O)c1ccccc1` (stereo not shown) [CBK156661], 111%; that for `COc1ccc(C(=O)O)cc1NC(=S)NC(=O)c1ccc(-c2cc(Cl)ccc2Cl)o1` [CBK265074], 104%.
With `CCCCNCC(=O)Nc1sc2c(c1C(=O)O)CCCC2` [CBK287207], the viability at 28.5 h, 10 µM worked out at 83.7%.
As to `COc1ccc(C2N(N3C(=O)CC(=O)NC3=O)C(=O)CS2(=O)=O)cc1OC` (stereo not shown) [CBK012702], the viability at 28.5 h, 10 µM is 94.8%.
Take `CN1CCC(N2CCN(C(=O)c3ccc(-c4cccc(C(F)(F)F)c4)o3)CC2)CC1` [CBK149085]: the viability at 28.5 h, 10 µM was determined as 91.2%.
Regarding `O=C(NCCc1c[nH]c2ccc(Cl)cc12)c1ccc(Br)cc1Cl` [CBK159762], the viability at 28.5 h, 10 µM came out at 89.1%.
Still for that read-out and setting: the result for `CCN(C(=O)c1ccc(C)nc1)[C@H]1CCO[C@@H](c2cccc(-c3cc(F)cc(F)c3)c2)C1` [CBK285856] reads 91%.
On the same count and under the same terms, the result for `CCn1cc(NC(=O)CCn2c(C(F)F)cc3cccnc32)cn1` [CBK282769] reads 97.1%; that for `CCCNc1nccnc1-c1ccc(F)c(Cl)c1` [CBK037100], 104%; that for `O=C(O)c1ccc(CN2CC[C@H](c3nc4ccccc4o3)C2)cc1` [CBK289387], 108%.
Turning to `O=c1[nH]c2ncc(-c3cccc(Br)c3)nc2n1Cc1ccccn1` [CBK065020], the viability at 28.5 h, 10 µM came to 101%.
Still for that read-out and setting: the figure for `COc1ccc(F)c(CN2CC3CCCN3C[C@@H]2C)c1` (stereo partly shown) [CBK284549] is 86.9%; for `Cc1c(C(=O)O)sc2c1c(=O)n(Cc1ccccc1)c(=O)n2CCN(C)C` [CBK286590] it is 95.3%; for `Cc1nc2c(c(=O)[nH]1)CCN(Cc1cc(C)n(C3CC3)c1C)C2` [CBK282338] it is 89.2%.
Same read-out and setting: the figure for `COc1cc(Nc2cccc(-c3ccsc3)n2)cc(OC)c1OC` [CBK036987] is 97.9%.
On the same count and under the same terms, the figure for `NCC(O)CNC(=O)c1cc(-c2ccc(Cl)cc2)[nH]n1` (stereo not shown) [CBK160977] is 87%; for `O=C1NC(=S)N/C1=C/c1cc2c(cc1Cl)OCO2` [CBK261818] it is 91.5%; for `O=C(COc1ccc2ccccc2c1)NCCN1CCOCC1` [CBK265444] it is 107%.
On to `CCCCC(=O)NC1CCN(C(=O)c2cccc(C#N)c2)CC1` [CBK306309], for which the viability at 28.5 h, 10 µM came to 83.4%.

The data set is the same for the next values; noted with them: human, hela cells, % viability, bulk resorufin, single well.
Regarding `CC(C)C(Nc1c([N+](=O)[O-])cc(C(F)(F)F)cc1[N+](=O)[O-])C(=O)O` (stereo not shown) [CBK261041], the viability at 28.5 h, 10 µM was found to be 96.4%.
On the same count and under the same terms, the figure for `CC1CCN(c2ccc(C(C)NC(=O)CCC3C(=O)NC(=O)NC3=O)cc2)CC1` (stereo not shown) [CBK285849] is 96.9%.

The record behind these values is publication PMC12040169 (PLOS Biology, 2025).
